Source: patent US6635242B2, “Broad spectrum microbicidal and spermicidal compositions, devices, and methods” (The Pennsylvania State University, priority 1998, dated 2003)

How the values were obtained:
BPV-1 = BPV-1 focus assay in C127 mouse cells; type: cell-based, bovine papillomavirus; settings: bovine papillomavirus
Experimental: Cell-free stocks of BPV-1 were prepared by extraction (10% w/v) of epidermal bovine warts in phosphate buffered saline (PBS). In order to detect the transforming ability of BPV-1, C127 mouse cells were seeded (3×10^5 cells per flask) into T-25^2 flasks. After 24 hr of growth, subconfluent cells were infected with BPV-1. For the positive controls, stock virus (20 μl) was diluted (1:1) with PBS, incubated at 37° C. for 10 min, diluted […] and then added (100 μl ) into the 5 ml of cell culture medium present on the cells. Cells were refed at 24 hours and subsequently 2 times weekly. The presence of morphologically transformed foci was counted after 2 weeks and then again at 3 weeks.
Virus inactivations were carried out in vitro by addition of concentrated SDS solutions to the virus stocks (20 μl of virus plus 20 μl of detergent) and subsequent incubation at 37° C. for 10 or 30 min as indicated. Following inactivation, virus was diluted 1000 fold to lower the detergent concentration and the preparations were immediately used for infection as above.
Although SDS could effectively reduce HSV-2 infectivity, it remained possible that this destruction was mediated by envelope removal. Because papillomaviruses are non-enveloped, the possibility remained that SDS would fail to inactivate these viruses. We utilized BPV-1 as a prototype PV because of its ability to rapidly (within 2 weeks) form multi-layered transformed foci in mouse fibroblasts in an in vitro assay. Table 3 describes results of two separate experiments in which stocks of BPV-1 were incubated at 37° C. with various concentrations of SDS (5% to 5×10^−4%) for either 10 or 30 minutes, diluted to lower the SDS concentration (to avoid cell toxicity) and then used to infect C127 cells. […] Table 4 lists several other commercially available detergents that were tested for possible inactivation of BPV-1. None of these detergents inactivated the morphologic transforming properties of the BPV-1.

[1] = test system: lymphocyte-, macrophage- and dual-tropic strains of HIV-1 (IIIB, BaL, 89.6); experiment: Cell-free HIV-1 inactivation (FIG. 5); type: cell-based, human immunodeficiency virus; settings: HCLB or P4-R5 indicator cells
Experimental: Cell-free HIV-1 strain IIIB (A) was treated with N-9, C31G, or SDS, and used to infect HCLB cells. Cell-free HIV-1 strains BaL (M tropic) (B) and 89.6 (dual tropic) (C) were treated with N-9, C31G or SDS,and used to infect P4-R5 cells. Assays were conducted. Infectivity following exposure is expressed as a percentage relative to the number of β-gal-positive cells in duplicate wells infected with virus incubated in the absence of a microbicidal compound. Results shown in FIG. 5 are the average cell counts for a total of four wells per concentration in two independent experiments.

CRPV = type: in vivo, cottontail rabbit papillomavirus; settings: 10^−2 dilution of CRPV stock, 0.05% N-9, 37° C. 10 min; 10 sites each, 3-6 weeks
[2] = test system: HIV-1-infected SupT1 cells; experiment: Cell-associated HIV-1 infectivity (FIG. 6); type: cell-based, human immunodeficiency virus; settings: 10 min at 37° C., co-culture with HCLB cells, FIG. 6(a)
Experimental: (A) SupT1 T lymphocytes (8×10^4)infected 5 days prior with HIV-1 strain IIIB were pelleted and resuspended in new media to remove cell-free virus. After exposure to selected concentrations of each microbicide for 10 min at 37° C., the cells were diluted 1:10 and co-cultured with HCLB cells for 2 h. Following one wash with PBS to remove the infected lymphocytes, the indicator cells were cultured and assayed. Infectivity following exposure is expressed as a percentage relative to the number of β-gal-positive cells in duplicate wells infected with HIV-1 infected SupT1 cells incubated in the absence of a microbicidal compound. Results shown in FIG. 6(a) are the average cell counts for a total of four wells per concentration in two independent experiments. (B) SupT1 T lymphocytes (8×10^4) were incubated with selected concentrations of each microbicide for 10 min at 37° C., and then diluted 1:10 with new media. Following a 2 h incubation period, the cells were assessed for viability. Cell survival after treatment is expressed as the fraction of viable cells relative to the number of mock-exposed cells. Results shown in FIG. 6(b) are the average of two experiments in which triplicate wells for each concentration were assayed.

Bovine sperm = Bovine sperm motility following detergent addition; type: cell-based; design: key to Bovine Sperm Motility Following Detergent Addition: +++: Vigorous swimming; ++/−: Many swimmers/some dead; +/−: Occasional swimmer/most dead; −: All dead
Source text: The following data represent an in vitro experiment to test the efficacy of SDS and other detergents as spermicidal agents. Frozen samples of bull semen were obtained, thawed and placed in a test tube. Aliquots were taken out and put in a separate test tube where they were mixed with detergent (SDS, C31G, N-9 or a mixture of SDS and N-9) to a final percent as listed in Tables 8 and 9 below. After mixing, the samples were immediately placed on a microscope slide and visually examined for sperm movement. The experiment was conducted one sample at a time so that the visual examination was conducted immediately after addition of detergent to the sample. As a result, indications in the table of complete inactivation indicate virtually instantaneous inactivation of the sperm. […] Occasional swimmers means very few, on the order of approximately 1% of the population of sperm present in the sample, indicating approximately 99% of the sperm were inactivated by the detergent.

CCCCCCCCCCCCOS(=O)(=O)[O-].[Li+] [LDS, lithium dodecyl sulfate]
anti-papillomavirus activity in the C127 focus assay (BPV-1): have anti-papillomavirus activity

CCCCCCCCCCCC(=O)O [Lauric Acid, lauric acid]
anti-papillomavirus activity in the C127 focus assay (BPV-1): have anti-papillomavirus activity

CCCCCCCCCCCC(=O)[O-].[Na+] [NA+ Lauric Acid, sodium salt of lauric acid]
anti-papillomavirus activity in the C127 focus assay (BPV-1): have anti-papillomavirus activity

Nonoxynol-9 [N-9, reference compound]
inactivation of cell-free HIV-1 strains IIIB, BaL and 89.6 (infectivity, β-gal-positive cells) [1]: inactivated
growth of papillomas (GMD) from treated versus normal CRPV (FIG. 2b) (CRPV): not a difference in the growth of the lesions
cell-associated infectivity of HIV-1-infected SupT1 cells [2]: can reduce the cell-associated infectivity
Bovine Sperm Motility Following Detergent Addition (Bovine sperm; Table 8, 0.0125% detergent): +++
Bovine Sperm Motility Following Detergent Addition (Bovine sperm; Table 8, 0.025% detergent): −
Bovine Sperm Motility Following Detergent Addition (Bovine sperm; Table 8, 0.5% detergent): −
Bovine Sperm Motility Following Detergent Addition (Bovine sperm; Table 8, 1% detergent): −
Bovine Sperm Motility Following Detergent Addition (Bovine sperm; Table 8, 2% detergent): −
Bovine Sperm Motility Following Detergent Addition (Bovine sperm; Table 9, 0.125% detergent): +++
Bovine Sperm Motility Following Detergent Addition (Bovine sperm; Table 9, 0.25% detergent): +++
Bovine Sperm Motility Following Detergent Addition (Bovine sperm; Table 9, 0.5% detergent): +++
Bovine Sperm Motility Following Detergent Addition (Bovine sperm; Table 9, 1% detergent): ++/−
Bovine Sperm Motility Following Detergent Addition (Bovine sperm; Table 9, 2% detergent): −
